{
  "source": "patent US9290511B2",
  "about": "“Thieno-pyrimidines, useful as potassium channel inhibitors” (XENTION LIMITED, priority 2011, dated 2016)",
  "biological_target": "T1, Kir3.1/3.4 (Rattus norvegicus, UniProt P48548+P63251)",
  "T1 construct": "expressed in transfected cells",
  "T1 sequence (P63251 1-501)": "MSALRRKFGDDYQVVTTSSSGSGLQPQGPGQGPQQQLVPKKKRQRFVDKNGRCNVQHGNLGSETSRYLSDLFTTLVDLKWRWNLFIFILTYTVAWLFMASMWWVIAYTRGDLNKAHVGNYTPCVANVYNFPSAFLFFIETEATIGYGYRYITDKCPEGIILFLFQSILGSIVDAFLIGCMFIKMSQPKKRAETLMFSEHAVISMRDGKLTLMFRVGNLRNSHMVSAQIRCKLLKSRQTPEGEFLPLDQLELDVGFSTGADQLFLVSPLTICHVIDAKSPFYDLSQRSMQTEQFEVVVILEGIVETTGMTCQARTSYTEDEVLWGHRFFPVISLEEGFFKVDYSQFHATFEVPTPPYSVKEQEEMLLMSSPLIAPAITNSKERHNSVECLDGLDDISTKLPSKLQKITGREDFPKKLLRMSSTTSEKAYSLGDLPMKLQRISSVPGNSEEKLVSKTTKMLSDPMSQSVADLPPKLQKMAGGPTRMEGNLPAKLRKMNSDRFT",
  "T1 sequence (P48548 1-419)": "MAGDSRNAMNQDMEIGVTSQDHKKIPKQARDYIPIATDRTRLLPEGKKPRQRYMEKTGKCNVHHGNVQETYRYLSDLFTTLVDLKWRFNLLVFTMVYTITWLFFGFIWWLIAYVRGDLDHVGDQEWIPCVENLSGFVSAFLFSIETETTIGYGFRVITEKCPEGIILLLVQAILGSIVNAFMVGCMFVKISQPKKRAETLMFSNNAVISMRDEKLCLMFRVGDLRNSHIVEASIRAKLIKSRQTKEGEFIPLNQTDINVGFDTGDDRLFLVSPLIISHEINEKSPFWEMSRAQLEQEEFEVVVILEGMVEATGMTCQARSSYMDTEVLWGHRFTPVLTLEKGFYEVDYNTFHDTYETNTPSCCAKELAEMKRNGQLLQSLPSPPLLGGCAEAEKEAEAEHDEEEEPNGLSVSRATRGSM",
  "assay": "Kir3.1/3.4 Q-patch Method (automated patch clamp, Sophion Q-patch)",
  "assay_type": "cell-based",
  "conditions": "HEK293 cells stably-expressing Kir3.1/3.4; current at -120 mV; QPatch-16 or QPatch-48",
  "protocol": "For automated patch-clamp studies using the Sophion Q-patch, accumulative concentration-responses experiments were conducted to determine compound activity against the ion channel target. Voltage-clamp experiments were performed using HEK293 cells stably-expressing Kir3.1/3.4 using either a QPatch-16 or QPatch-48 (Sophion Bioscience A/S). A voltage waveform (VHold−20 mV, step to 60 mV for 100 ms, ramp to −120 mV over 500 ms, hold at −120 mV for 100 ms before returning to VHold) was repeatedly applied to the cells under voltage-clamp at a frequency of 0.1 Hz to elicit Kir3.1/3.4 currents. Mean current at −120 mV was measured in the absence (Icontrol) and presence of drug (IDrug). Assessment of passive leak was performed by removal of external potassium (IZero). Leak current was subtracted from control and drug recordings. Current inhibition (%) was calculated as {1−[(IDrug−IZero)/(IControl−IZero)]}*100. Data were fitted with a sigmoidal function to yield an IC50 and Hill coefficient. Composition of external experimental buffer was (in mM): 40 NaCl, 100 KCl, 5 CaCl2, 1 MgCl2, 10 HEPES pH 7.4. Composition of internal solution was (in mM). 40 K-gluconate, 60 KF, 20 NaCl, 5 Mg-ATP, 0.9 GTPgS, 20 EGTA, pH 7.2. Compounds were formulated in DMSO and diluted in buffer to give a final drug concentration of between […] and a final DMSO concentration of 0.1-0.3%.",
  "data": [
    {"smiles": "COCC1CC2CCC(C1)N2c1nc(N2C3CCC2CC(O)C3)nc2scc(-c3ccccc3OC)c12", "note": "(stereo not shown) [Example 372, 8-[4-[3-(methoxymethyl)-8-azabicyclo[3.2.1]octan-8-yl]-5-(2-methoxyphenyl)thieno[2,3-d]pyrimidin-2-yl]-8-azabicyclo[3.2.1]octan-3-ol]", "values": [
      {"measurement": "IC50", "result": "< 500", "unit": "nM"}
    ]},
    {"smiles": "NC(=O)C1CN(c2nc(N3C4CCC3COC4)c3c(-c4ccccc4Cl)csc3n2)CCN1", "note": "(stereo not shown) [Example 416, 4-[5-(2-chlorophenyl)-4-(3-oxa-8-azabicyclo[3.2.1]octan-8-yl)thieno[2,3-d]pyrimidin-2-yl]piperazine-2-carboxamide]", "values": [
      {"measurement": "IC50", "result": "< 500", "unit": "nM"}
    ]},
    {"smiles": "NC(=O)C1CN(c2nc(N3C4CCC3COC4)nc3scc(-c4ccccc4Cl)c23)CCN1", "note": "(stereo not shown) [Example 417, 4-[5-(2-chlorophenyl)-2-(3-oxa-8-azabicyclo[3.2.1]octan-8-yl)thieno[2,3-d]pyrimidin-4-yl]piperazine-2-carboxamide]", "values": [
      {"measurement": "IC50", "result": "500 to 3000", "unit": "nM"}
    ]},
    {"smiles": "COc1ccccc1-c1csc2nc(N3C4CCC3COC4)nc(N3C4CCC3CC(OC)C4)c12", "note": "(stereo not shown) [Example 379, 8-[4-(3-methoxy-8-azabicyclo[3.2.1]octan-8-yl)-5-(2-methoxyphenyl)thieno[2,3-d]pyrimidin-2-yl]-3-oxa-8-azabicyclo[3.2.1]octane]", "values": [
      {"measurement": "IC50", "result": "500 to 3000", "unit": "nM"}
    ]}
  ]
}
